Source: paper PMC8653149, “Cyclic Analogs of Desferrioxamine E Siderophore for ^68Ga Nuclear Imaging: Coordination Chemistry and Biological Activity in Staphylococcus aureus” (Inorganic Chemistry, 2021)

Assays:
[1] = Fe(III) complex stability constants by potentiometric and pH-dependent UV–vis titrations; format: physicochemical; conditions: calculated for [L] = 1 × 10^–4, [M] = 1 × 10^–5 at pH 7.4
Description: Therefore, the stability constants of the first species formed in solution were determined from the spectrophotometric pH-dependent batch titrations carried out in the pH range of around 0.1–2 (Figure S3), by following the changes in the intense LMCT band of the metal complex. These values were further used as constant values in spectrophotometric or potentiometric titrations carried out in the pH range from 2 to 11 (Figure S3) to get the overall stability constants, logβFeL (Table S5). […] Metal–metal competition titrations were carried out at pH 1.6 for FOX 2-5 and FOX 2-4 and at pH 2 for the rest of the analogs and the native compound.
Potentiometric titrations were performed using an automatic titrator system Titrando 905 (Metrohm) equipped with a 800 Dosino dosing unit and a microburet with a volume of 2 mL. A combined glass electrode was calibrated each day for hydrogen ion concentration by 0.1 M HClO4 with CO2-free 0.1 M NaOH solutions. A stream of high purity grade argon, presaturated with water vapor, passed over the surface of the solution cell, filled with 3 mL of the studied solution. For each system, a minimum of four independent titrations was performed. The purity of ligand and accurate concentration of ligand solution were determined before each experiment with the Gran method[68] by potentiometric titration of the 3 mL sample of the ligand, with [L] ∼ 1 × 10^–3 M. In separate potentiometric titrations, the metal-to-ligand ratio was 1:1, and the concentration of metal was 2 × 10^–3 M. The potentiometric data were refined to obtain the overall Fe(III)-FOXE and Ga(III)-FOXE derivative binding constants (logβFe(III)L, logβGa(III)L).
The absorption measurements (200 nm–800 nm) were performed on a Varian Cary 300 Bio UV–visible spectrophotometer. The solutions were measured in high precision Quartz […] cuvettes (1 and 3 mL) with 1 cm lightpath (Hellma).
Two series of experiments were performed: (i) in the pH range of 0.1–2 and (ii) between pH 2 and 11. In the first series of experiments, (i) the stock solution of the ligand was divided into various batches followed by Fe(III) addition, with a constant total volume of 2 mL, [Fe(III)] = 2 × 10^–4 M, and a metal-to-ligand molar ratio of 1:1. The pH was controlled by concentration of the perchloric acid. After preparation, each solution was allowed to equilibrate for 1 h at 25 °C, and then its UV–vis spectrum was recorded.
The experimental sets with over 140 points collected in the pH range 2–11 for a single potentiometric measurement were imported to the […] software,[69] which uses nonlinear least-squares methods for data treatment. Spectroscopic data were refined using SPECFIT/32 software, which uses factor analysis to reduce the absorbance matrix and to extract the eigenvalues prior to the multiwavelength fit of the reduced data set according to the Marquardt algorithm and adjusts the absorptivity and the stability constants of the species formed at equilibrium.[70]−[72] Standard deviation was used for the calculation of the uncertainties in logβ. Speciation plots were prepared using HYSS software,[73] implementing data gathered in Tables S4, S5, and S8. Raw data was processed using Origin 7.0.

[2] = Ga(III) complex stability constants by Fe(III)–Ga(III) metal–metal competition, potentiometric and UV–vis pH-metric titrations; format: physicochemical; conditions: for pGa(III): calculated, pH 7.4; for logβ[GaHL]+: competition UV-Vis titrations; for logβ[GaHL]+ / logβ[GaL]: M:L 1:1, T = 25°C; for logβ[GaHL]+ / logβ[GaL] / pKNHOH (pK of [GaL] formation from [GaHL]+): I = 0.1 M NaClO4; for pKNHOH (pK of [GaL] formation from [GaHL]+): T = 25 °C
Source text: The next step was to determine the coordination specificity of investigated ligands toward Ga(III) ions. This is a somewhat challenging task because it requires indirect methods since the investigated complexes started to form in a very acidic environment, where potentiometric measurements were not accurate owing to the error of the glass electrode,[55],[56] and gallium is spectroscopically silent in UV–vis. To bypass this inconvenience, we implemented metal–metal competition assays. After addition of a significant molar excess of Ga(III), the LMCT band of Fe(III)-FOXE analog complexes was almost fully silenced as Ga(III) replaced Fe(III) in its complexes (Figure S5). By implementing those spectral changes, we were able to calculate the stability constants of the Ga(III)-FOXE analog species present below or around pH 2, [GaHL]^+ (Table S8). Stability constants for the [GaL] species, present above pH 2, could be determined by potentiometric titrations for Ga(III)-FOX 2-2, 2-3, 2-4, and 3-5, with logβ of [GaHL]^+ fixed in the calculations (Table S8). For Ga(III)-FOX 2-5, we could not observe any deprotonation step using this methodology. To confirm this behavior, UV–vis titration of the Ga(III)-FOX 2-5 analog complex was performed in the 200–300 nm spectral range (Figure S6) corresponding to the hydroxamate groups’ protonation state.[57]−[59] […] Above pH 4, there were no significant changes in maxima localization or absorbance intensity. Above pH 9, absorbance started to rise again, which indicated complex dissociation. […] Overall, the data indicated a decreased stability of [GaL] species when decreasing or increasing the ring size of Ga(III)-FOX 2-5, as reflected by pKNHOH (Table S8). Implementing this full coordination specification of Ga(III)-FOX complexes, we were able to calculate speciation plots which are presented in Figure 1 for the most efficient analogs FOX 2-4 and FOX 2-5, given here as examples, and in Figure S7 for others.
Proposed biomimetic analogs of cyclic siderophore FOXE bind Fe(III) ions starting from pH around 0, and the complexation is essentially complete far below or around pH of 2. Therefore, the stability constants of the first species formed in solution were determined from the spectrophotometric pH-dependent batch titrations carried out in the pH range of around 0.1–2 (Figure S3), by following the changes in the intense LMCT band of the metal complex. These values were further used as constant values in spectrophotometric or potentiometric titrations carried out in the pH range from 2 to 11 (Figure S3) to get the overall stability constants, logβFeL (Table S5). Since Ga(III)-FOX complexes present similar coordination properties, the first species start to form below pH 2 as well. However, in this case, we have used indirect methods to determine stability constants for Ga(III)-FOXE analogs and the Ga(III) complex with native FOXE, as Ga(III) complexes are spectroscopically silent in the UV–vis region. Metal–metal competition titrations were carried out at pH 1.6 for FOX 2-5 and FOX 2-4 and at pH 2 for the rest of the analogs and the native compound. The intense LMCT band of the Fe(III) complex was silenced after addition of a fixed volume of Ga(III) ions (Figure S5).
Potentiometric titrations were performed using an automatic titrator system Titrando 905 (Metrohm) equipped with a 800 Dosino dosing unit and a microburet with a volume of 2 mL. A combined glass electrode was calibrated each day for hydrogen ion concentration by 0.1 M HClO4 with CO2-free 0.1 M NaOH solutions. A stream of high purity grade argon, presaturated with water vapor, passed over the surface of the solution cell, filled with 3 mL of the studied solution. For each system, a minimum of four independent titrations was performed. […]

[3] = Distribution coefficient (logD) of ^68Ga-labeled ligands between octanol and PBS
[4] = Ligand–ligand competition UV–vis titrations of Fe(III) complexes vs EDTA; format: physicochemical; conditions: [L] = 1.5·10^-4 M, M:L ratio 1:1, pH = 7, T = 25°C, I = 0.1 M NaClO4
Description: In this series of experiments, the stock solution of FOX ligand was divided into various batches followed by metal addition with a constant total volume of 2 mL, [Fe(III)] = 2 × 10^–4, and a metal-to-ligand molar ratio of 1:1. The EDTA ligand was added to a previously prepared series of solutions in increasing concentration, from a 0 to 10 molar excess for FOX 2-5 and from a 0 to 1.2 molar excess for the rest of the derivatives. pH was adjusted to ∼7 with the NaOH solution. After preparation, each solution was allowed to equilibrate for 3–7 days, depending on the investigated complex. Changes were observed between the collected spectra, and they were measured consequently until no further changes were present. The UV–vis spectra were recorded (Figure S4), and competition data were refined to obtain the overall Fe(III)-FOXE derivative binding constant (logβFe(III)L). The protonation constants of FOXE derivatives (Table S4) and formation constants for Fe(III)-FOXE derivative complex species (Table S5) were treated as fixed parameters in data analysis.
The spectrophotometric competition experiments with EDTA
The spectrophotometric competition experiments with EDTA were performed at fixed pH 7.0,
to compete effectively with the tris-hydroxamates for ferric ion at intermediate pH values (5-8)
if an excess of EDTA is used. The competition equilibrium is described by equations (S5) and
Fe IIIL  EDTA K  FeIII EDTA  L (S5)
[FeIII L][EDTA]  Fe(III)L (S6)
The competition data were refined to obtain the overall Fe(III)-FOX binding constant logβ FeL
(Table S7) for analogs using a model involving two ligands and one metal.
The concentration of Fe(III)-analog complex for each derivative, [FeL], was calculated from
the absorbance maximum at around 420 nm (where FeL is the only light-absorbing species) and
previously determined extinction coefficients. The concentrations of other species in equation
(S6) were calculated from mass balance equations using the experimental pH values:
[Fe]tot =  FeL[FeL] +  FeEDTA[FeEDTA]
[L]tot =  FeL[FeL] +  L[L]
[EDTA]tot =  FeEDTA[FeEDTA] +  EDTA[EDTA]
a is the usual Ringbom’s coefficient.

[5] = potentiometric, [L] = 1·10^-3 M

| SMILES | pFe(III) [1] | pGa(III) [2] | logβ[GaHL]+ ([2]; [L] = 1·10^-4 M) | logβ[GaL] [2, 5] | logD at 20 min [3] | logβ[FeL] [4] | pKNHOH (pK of [GaL] formation from [GaHL]+) [2] | logβ[GaL] ([2]; UV-Vis (metal–metal competition) titrations, [L] = 1·10^-4 M) |
| --- | --- | --- | --- | --- | --- | --- | --- | --- |
| O=C1CCN(O)C(=O)CCNC(=O)CCN(O)C(=O)CCNC(=O)CCN(O)C(=O)CCN1 [FOX 2-2] | 21.5 | 21.4 | 28.48 (4) | 26.52 (5) | -2.66 | 26.57 (4) | – | – |
| O=C1CCCN(O)C(=O)CCNC(=O)CCCN(O)C(=O)CCNC(=O)CCCN(O)C(=O)CCN1 [FOX 2-3] | 22.7 | 20.8 | 28.30 (4) | 26.02 (1) | -2.96 | 26.55 (3) | 2.28 | – |
| O=C1CCCCN(O)C(=O)CCNC(=O)CCCCN(O)C(=O)CCNC(=O)CCCCN(O)C(=O)CCN1 [FOX 2-4] | 24.3 | 21.8 | 28.84 (5) | 26.28 (1) | -3.02 | 27.13 (1) | 2.56 | – |
| O=C1CCCCCN(O)C(=O)CCNC(=O)CCCCCN(O)C(=O)CCNC(=O)CCCCCN(O)C(=O)CCN1 [FOX 2-5] | 27.0 | 25.2 | – | – | -1.9 | 28.81 (1) | – | 29.52 (6) |
| O=C1CCCCCN(O)C(=O)CCCNC(=O)CCCCCN(O)C(=O)CCCNC(=O)CCCCCN(O)C(=O)CCCN1 [FOX 3-5] | 24.1 | 22.6 | 29.45 (1) | 26.58 (4) | -1.57 | 28.38 (1) | 2.87 | – |
